From US10647680B2, “Urea compound, preparation method therefor and medical use thereof” (Ancureall Pharmaceutical (Shanghai) Co., Ltd., priority 2016, dated 2020)
Read-outs that look alike come from different tables or passages of the source.

Legend:
[1] = tested on: MV4-11 (FLT3 ITD+/+ mutant type); assay: In vitro growth inhibition (GI50), MV4-11; format: cell-based, human; settings: for growth inhibitory effect on MV4-11 (in words): FLT3-ITD positive cell line MV4-11; for GI50: Homo sapiens; for inhibition activity against the growth of MV4-11 cells compared with AC220: compared with the control compound AC220
[2] = tested on: K562 (FLT3 negative expression, positive expression of BCR-ABL fusion protein); assay: In vitro growth inhibition (GI50), K562; format: cell-based; settings: Homo sapiens, Cell lines of leukemia, read-out: GI 50 K562 BCR-ABL
Calu-3 (HER2/ErbB2 amp) = assay: In vitro growth inhibition (GI50), Calu-3; format: cell-based; settings: Homo sapiens
Source text: Tumor cell line is an effective cell model for studying the inhibition of tumor cell growth or proliferation in vitro. In the present invention, a representative tumor cell line was selected to determine the cell growth inhibition activity of the present compound. All cell lines used were from ATCC, DSMZ, and the Cell Bank of the Chinese Academy of Sciences. Cell culture conditions and methods were in accordance with the requirements of each cell line. Cells were subcultured in vitro for no more than 3 passages each time, and as required, single-clone purification and identification of cell lines could be carried out.
The cell culture media used were RPMI1640 (Gibco), MEM (Gibco), McCOY'S5A (Gibco), and IMDM (Gibco). The complete medium was prepared by supplement with 5˜20% fetal calf serum (Gibco), 1% double-antibiotics (10000 units/mL penicillin and 10000 units/mL), 2 mM glutamine or 1 mM sodium pyruvate, respectively.
Human gastric cancer cell line NCI-N87 (HER2/ErbB2 amp, ATCC), human breast cancer cell line HCC1954 (HER2/ErbB2 amp, ATCC) and ZR-75-30 (HER2/ErbB2 amp, ATCC), human adenocarcinoma cell line AU565 (HER2/ErbB2 amp, ATCC), human lung squamous cell carcinoma cell line NCI-H2170 (HER2/ErbB2 amp, ATCC), human bronchioalveolar adenocarcinoma cell line NCI-H1781 (HER2/ErbB2 Ins G776V,C mutant type, ATCC) were cultured with a 1×RPMI1640 complete medium (10% FBS), respectively. Human lung adenocarcinoma cell line Calu-3 (HER2/ErbB2 amp, ATCC) was cultured with 1×MEM, 10% FBS, 1% double antibody, 1% NEAA (Gibco), 2 mM glutamine and 1 mM sodium pyruvate. The human breast cancer cell line SK-BR-3 (HER2/ErbB2 amp, ATCC) was cultured with a McCOY'S5A complete medium (10% FBS).
Adherent cells were digested with 0.25% pancreatin-EDTA (Gibco). The suspension cells were collected by centrifugation. The supernatant was discarded and the cell pellet was resuspended and counted. Different cell concentrations (5˜10×10^4 cells/mL) were prepared according to the growth cycle of each cell line and then seeded on a 96-well plate (Corning), 100 μL/well. The cells were incubated overnight at 37° C., 5% CO2. The compounds were added to the cells on the second day with 2 wells in parallel. The final concentration of organic solvent shall not exceed 1%. The cells were continually incubated for 3 to 5 days, and then subjected to MTT assay.
The compound of the present invention and the control compound were dissolved in DMSO (Sigma) respectively, with the purity of more than 98%. The compound was stored in a concentration of 10 mM at −20° C. and diluted to 2- or 10-fold series prior to use.
Dojindo CCK8 reagent kit was used as MTT assay. THERMO […] FC meter was used as microplate reader.
For adherent cells, culture medium was removed and immediately replaced with the fresh prepared medium which contains 10% CCK8 reagent (100 μL/well). For the suspension cells, CCK8 was directly added to 10% of the final concentration. The cells were continually incubated for 1˜4 h. When a dark yellow color could be observed in the solvent control wells, the absorbance value at OD450 nm was measured and the cell growth rate was calculated according to the following formula: Cell Growth Rate (%)=100*(T−T0)/(C−T0) T=optical density of drug treatment cell well—optical density of blank control well; T0=optical density of cell well before drug treatment—optical density of blank control well; C=optical density of cell well of solvent control group—optical density of blank control well. The concentration value of 50% inhibition of cell growth (GI50) was calculated according to the drug concentration and cell growth rate curve. The experiment was independently repeated 1˜3 times, and subject to biological statistical analysis. 4. Experimental Results
Tumor cell growth inhibition test was performed by selecting representative compounds (compounds 4, 11, 12, 16, 27, 68, 71, 77, 79, 89 and 116 of the present invention). […]

[3] = MV4-11, Cell lines of leukemia, read-out: GI 50 MV4-11 FLT3 (ITD +/+)
[4] = MV4-11, FLT3 ITD +/+, read-out: GI50
[5] = FLT3-ITD positive-expressing cell line MV4-11, Table 3, read-out: GI50 value, MV4-11

Row | Compound | growth inhibitory effect on MV4-11 (in words) [1] | GI50 [1, 3] [nM] | GI50 [1, 4] [nM] | GI50 [2] [nM] | GI50 (Calu-3 (HER2/ErbB2 amp)) [nM] | inhibition activity against the growth of MV4-11 cells compared with AC220 [1] | GI50 [1, 5] [nM]
1 | CC(C)(C)c1cc(NC(=O)Nc2ccc(-n3cnc4cc(O)ccc43)cc2)no1 [Compound 4, 1-(5-tert-butyl-isoxazol-3-yl)-3-[4-(5-hydroxy-benzimidazol-1-yl)-phenyl]-urea] | strong growth inhibitory effects | 0.1 to 1 | 0.12 | 100 to 1000 | > 2500 | – | –
2 | CC(C)(C)c1cc(NC(=O)Nc2ccc(-n3cnc4cc(OCCO)ccc43)cc2)no1 [Compound 11, 1-(5-tert-butyl-isoxazol-3-yl)-3-{4-[5-(2-hydroxy-ethoxyl)-benzimidazol-1-yl]-phenyl]-urea] | strong growth inhibitory effects | 0.01 to 0.1 | 0.07 | > 1000 | > 2500 | stronger inhibition activity | –
3 | CC(C)(C)c1cc(NC(=O)Nc2ccc(-n3cnc4cc(OCCN5CCOCC5)ccc43)cc2)no1 [Compound 16, 1-(5-tert-butyl-isoxazol-3-yl)-3-{4-[5-(2-morpholin-4-yl-ethoxyl)-benzimidazol-1-yl]-phenyl}-urea] | – | 0.1 to 1 | 0.48 | > 1000 | > 2500 | – | 0.039 to 0.8
4 | CC(C)(C)c1cc(NC(=O)Nc2ccc(-n3cnc4ccc(OCCN5CCOCC5)cc43)cc2)no1 [Compound 27, 1-(5-tert-butyl-isoxazol-3-yl)-3-{4-[6-(2morpholin-4-yl-ethoxyl)-benzimidazol-1-yl]-phenyl}-urea] | – | 0.1 to 1 | 0.78 | > 1000 | > 2500 | – | 0.039 to 0.8
5 | CC(C)(C)c1cc(NC(=O)Nc2ccc(-n3cnc4ccccc43)cc2)[nH]n1 [Compound 68, 1-(4-benzimidazol-1-yl-phenyl)-3-(5-tert-butyl-2H-pyrazol-3-yl)-urea] | – | 0.1 to 1 | 0.48 | > 1000 | > 2500 | – | 0.039 to 0.8
6 | COc1ccc2c(c1)ncn2-c1ccc(NC(=O)Nc2cc(C(C)(C)C)n[nH]2)cc1 [Compound 71, 1-(5-tert-butyl-2H-pyrazol-3-yl)-3-[4-(5-methoxyl-benzimidazol-1-yl)-phenyl]-urea] | – | 0.01 to 0.1 | 0.039 | > 1000 | > 2500 | stronger inhibition activity | 0.039 to 0.8
7 | COCCOc1ccc2c(c1)ncn2-c1ccc(NC(=O)Nc2cc(C(C)(C)C)n[nH]2)cc1 [Compound 77, 1-(5-tert-butyl-2H-pyrazol-3-yl)-3-{4-[5-(2-methoxyl-ethoxyl)-benzimidazol-1-yl]-phenyl}-urea] | – | 0.01 to 0.1 | 0.093 | > 1000 | > 2500 | stronger inhibition activity | 0.039 to 0.8
8 | CC(C)(C)c1cc(NC(=O)Nc2ccc(-n3cnc4cc(OCCO)ccc43)cc2)[nH]n1 [Compound 79, 1-(5-tert-butyl-2H-pyrazol-3-yl)-3-{4-[5-(2-hydroxy-ethoxyl)-benzimidazol-1-yl]-phenyl]urea] | strong growth inhibitory effects | 0.01 to 0.1 | 0.047 | > 1000 | > 2500 | stronger inhibition activity | –
9 | CC(C)(C)c1cc(NC(=O)Nc2ccc(-n3cnc4cc(OCCN5CCOCC5)ccc43)cc2)[nH]n1 [Compound 89, 1-(5-tert-butyl-2H-pyrazol-3-yl)-3-{4-[5-(2-morpholin-4-yl-ethoxyl)-benzimidazol-1-yl]-phenyl}-urea] | – | 0.01 to 0.1 | 0.041 | > 1000 | > 2500 | stronger inhibition activity | 0.039 to 0.8
10 | CC(C)(C)c1cc(N)n(C(=O)Nc2ccc(-n3cnc4ccccc43)cc2)n1 [Compound 116, 5-amino-3-tert-butyl-pyrazol-1-carboxylic acid (4-benzimidazol-1-yl-phenyl)-amide] | – | 10 to 100 | 1.51 | > 1000 | > 2500 | – | 0.039 to 0.8
